In patent US11802120B2, “Fused cyclic urea derivatives as CRHR2 antagonist” (RaQualia Pharma Inc., priority 2018, dated 2023):

The compounds below were run against T1, human CRHR2-alpha (Homo sapiens, UniProt Q13324) (assay: cAMP functional assay for human CRHR2 (LANCE Ultra cAMP, TR-FRET)). Settings: CHO-K1 cells expressing human CRHR2-alpha, agonist human urocortin2 at EC80, cAMP; read-out: IC50 against CRHR2.
T1 sequence (Q13324 1-411): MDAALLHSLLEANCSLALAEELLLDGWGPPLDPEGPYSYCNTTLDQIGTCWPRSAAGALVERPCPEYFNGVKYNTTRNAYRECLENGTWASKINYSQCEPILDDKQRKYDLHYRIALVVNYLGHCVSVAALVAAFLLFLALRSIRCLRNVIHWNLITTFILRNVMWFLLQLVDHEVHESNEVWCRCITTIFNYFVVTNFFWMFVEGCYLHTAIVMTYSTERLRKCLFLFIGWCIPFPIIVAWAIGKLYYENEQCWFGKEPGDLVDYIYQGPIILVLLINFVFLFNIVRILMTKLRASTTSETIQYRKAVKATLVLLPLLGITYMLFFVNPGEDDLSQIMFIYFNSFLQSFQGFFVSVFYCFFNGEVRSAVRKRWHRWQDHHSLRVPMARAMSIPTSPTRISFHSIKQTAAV
Assay type: cell-based
Method in brief: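 Inhibition of agonist-driven cAMP was assessed in recombinant CHO-K1 cells at 25° C, using 30 min compound pretreatment and 30 min stimulation with EC80 human urocortin2 (CRHR2) or CRF (CRHR1). IC50 came from dose-response fitting.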

IC50, < 300 nM:
O=C(N[C@H]1CC[C@H](Cn2c(=O)n(-c3cnc4[nH]c(CO)cc4c3)c3ccccc32)CC1)c1cc(Cl)cnc1C(F)F [Example 709, 5-chloro-2-(difluoromethyl)-N-((1r,4r)-4-((3-(2-(hydroxymethyl)-1H-pyrrolo[2,3-b]pyridin-5-yl)-2-oxo-2,3-dihydro-1H-benzo[d]imidazol-1-yl)methyl)cyclohexyl)nicotinamide]
Cc1ncc(Cl)cc1C(=O)N[C@H]1CC[C@H](Cn2c(=O)n(-c3ccc(-c4ccn[nH]4)cc3)c3ccccc32)CC1 [Example 469, N-((1r,4r)-4-((3-(4-(1H-pyrazol-5-yl)phenyl)-2-oxo-2,3-dihydro-1H-benzo[d]imidazol-1-yl)methyl)cyclo-hexyl)-5-chloro-2-methylnicotinamide]
O=C(N[C@H]1CC[C@H](Cn2c(=O)n(-c3ccc(N4CC5(COC5)CC4=O)nc3)c3ccccc32)CC1)c1cc(Cl)cnc1C(F)F [Example 584, 5-chloro-2-(difluoromethyl)-N-((1r,4r)-4-((2-oxo-3-(6-(7-oxo-2-oxa-6-azaspiro[3,4]octan-6-yl)pyridin-3-yl)-2,3-dihydro-1H-benzo[d]imidazol-1-yl)methyl)cyclohexyl) nicotinamide]
O=C(N[C@H]1CC[C@H](Cn2c(=O)n(-c3ccc(-n4nccn4)nc3)c3ccccc32)CC1)c1cc(Cl)cnc1C(F)F [Example 685, N-((1r,4r)-4-((3-(6-(2H-1,2,3-triazol-2-yl)pyridin-3-yl)-2-oxo-2,3-dihydro-1H-benzo[d]imidazol-1-yl)methyl)cyclohexyl)-5-chloro-2-(difluoromethyl) nicotinamide]
Cc1ccc(-n2c(=O)n(C[C@H]3CC[C@H](NC(=O)c4cc(Cl)cnc4C(F)F)CC3)c3nccnc32)cc1 [Example 506, 5-chloro-2-(difluoromethyl)-N-((1r,4r)-4-((2-oxo-3-(p-tolyl)-2,3-dihydro-1H-imidazo[4,5-b]pyrazin-1-yl)methyl)cyclohexyl)nicotinamide]
CC(=O)Nc1cc(C)c(-n2c(=O)n(C[C@H]3CC[C@H](NC(=O)c4cc(Cl)cnc4C(F)F)CC3)c3ccccc32)cn1 [Example 559, N-((1r,4r)-4-((3-(6-acetamido-4-methylpyridin-3-yl)-2-oxo-2,3-dihydro-1H-benzo[d]imidazol-1-yl)methyl)cyclo-hexyl)-5-chloro-2-(difluoro-methyl)nicotinamide]
Cc1ncc(Cl)cc1C(=O)N[C@H]1CC[C@H](Cn2c(=O)n(-c3ccnc(-c4cnco4)c3)c3ccccc32)CC1 [Example 521, 5-chloro-2-methyl-N-((1r,4r)-4-((3-(2-(oxazol-5-yl)pyridin-4-yl)-2-oxo-2,3-dihydro-1H-benzo[d]imidazol-1-yl)methyl)cyclohexyl)nicotinamide]
O=C(N[C@H]1CC[C@H](Cn2c(=O)n(-c3ccc(N[C@@H]4CCOC4)nc3)c3ccccc32)CC1)c1cc(Cl)cnc1C(F)F [Example 379, 5-chloro-2-(difluoromethyl)-N-((1R,4r)-4-((2-oxo-3-(6-(((R)-tetrahydrofuran-3-yl)amino)pyridin-3-yl)-2,3-dihydro-1H-benzo[d]imidazol-1-yl)methyl)cyclohexyl) nicotinamide]
O=C(N[C@H]1CC[C@H](Cn2c(=O)n(-c3cccc(-c4cn[nH]c4)c3)c3ccccc32)CC1)c1cc(Cl)cnc1C(F)F [Example 697, N-((1r,4r)-4-((3-(3-(1H-pyrazol-4-yl)phenyl)-2-oxo-2,3-dihydro-1H-benzo[d]imidazol-1-yl)methyl)cyclohexyl)-5-chloro-2-(difluoromethyl)nicotinamide]
CN1CCN(c2cccc(-n3c(=O)n(C[C@H]4CC[C@H](NC(=O)c5cc(Cl)cnc5C(F)F)CC4)c4ccccc43)n2)C1=O [Example 774, 5-chloro-2-(difluoromethyl)-N-((1r,4r)-4-((3-(6-(3-methyl-2-oxoimidazolidin-1-yl)pyridin-2-yl)-2-oxo-2,3-dihydro-1H-benzo[d]imidazol-1-yl)methyl)cyclohexyl) nicotinamide]
Cc1ncc(Cl)cc1C(=O)N[C@H]1CC[C@H](Cn2c(=O)n(-c3cnc4c(c3)oc(=O)n4C)c3ccccc32)CC1 [Example 215, 5-chloro-2-methyl-N-((1r,4r)-4-((3-(3-methyl-2-oxo-2,3-dihydrooxazolo[4,5-b]pyridin-6-yl)-2-oxo-2,3-dihydro-1H-benzo[d]imidazol-1-yl)methyl)cyclohexyl)nicotinamide]
O=C(N[C@H]1CC[C@H](Cn2c(=O)n(-c3cccc4cccnc34)c3ccccc32)CC1)c1cc(Cl)cnc1C(F)(F)F [Example 353, 5-chloro-N-((1r,4r)-4-((2-oxo-3-(quinolin-8-yl)-2,3-dihydro-1H-benzo[d]imidazol-1-yl)methyl)cyclo-hexyl)-2-(trifluoromethyl) nicotinamide]
Cc1ncc(Cl)cc1C(=O)N[C@H]1CC[C@H](Cn2c(=O)n(-c3ccc(-c4ncc[nH]4)nc3)c3ccccc32)CC1 [Example 695, N-((1r,4r)-4-((3-(6-(1H-imidazol-2-yl)pyridin-3-yl)-2-oxo-2,3-dihydro-1H-benzo[d]imidazol-1-yl)methyl)cyclohexyl)-5-chloro-2-methylnicotinamide]
O=C(N[C@H]1CC[C@H](Cn2c(=O)n(-c3ccc(OCCO)nc3)c3ccccc32)CC1)c1cc(Cl)cnc1C(F)F [Example 365, 5-chloro-2-(difluoromethyl)-N-((1r,4r)-4-((3-(6-(2-hydroxyethoxy)pyridin-3-yl)-2-oxo-2,3-dihydro-1H-benzo[d]imidazol-1-yl)methyl)cyclohexyl)nicotinamide]
Cc1ncc(Cl)cc1C(=O)N[C@H]1CC[C@H](Cn2c(=O)n(-c3ccc(-c4cn[nH]c4)nc3)c3ccccc32)CC1 [Example 203, N-((1r,4r)-4-((3-(6-(1H-pyrazol-4-yl)pyridin-3-yl)-2-oxo-2,3-dihydro-1H-benzo[d]imidazol-1-yl)methyl)cyclohexyl)-5-chloro-2-methylnicotinamide]
O=C(N[C@H]1CC[C@H](Cn2c(=O)n(-c3ccc4ncsc4c3)c3ncccc32)CC1)c1cc(Cl)cnc1C(F)F [Example 387, N-((1r,4r)-4-((3-(benzo[d]thiazol-6-yl)-2-oxo-2,3-dihydro-1H-imidazo[4,5-b]pyridin-1-yl)methyl)cyclo-hexyl)-5-chloro-2-(difluoro-methyl)nicotinamide]
CNc1ccc(-n2c(=O)n(C[C@H]3CC[C@H](NC(=O)c4cc(Cl)cnc4C(F)(F)F)CC3)c3ccccc32)cn1 [Example 332, 5-chloro-N-((1r,4r)-4-((3-(6-(methylamino)pyridin-3-yl)-2-oxo-2,3-dihydro-1H-benzo[d]imidazol-1-yl)methyl)cyclohexyl)-2-(trifluoromethyl) nicotinamide]
COc1ccc(Cn2c(=O)n(C[C@H]3CC[C@H](NC(=O)c4cc(Cl)cnc4C)CC3)c3cccnc32)c(OC)c1 [Example 251, 5-chloro-N-((1r,4r)-4-((3-(2,4-dimethoxybenzyl)-2-oxo-2,3-dihydro-1H-imidazo[4,5-b]pyridin-1-yl)methyl)cyclo-hexyl)-2-methylnicotinamide]
O=C(N[C@H]1CC[C@H](Cn2c(=O)n(-c3ccc(-n4ccnc4)cc3)c3ccccc32)CC1)c1cc(Cl)cnc1C(F)F [Example 569, N-((1r,4r)-4-((3-(4-(1H-imidazol-1-yl)phenyl)-2-oxo-2,3-dihydro-1H-benzo[d]imidazol-1-yl)methyl)cyclo-hexyl)-5-chloro-2-(difluoro-methyl)nicotinamide]
CN1CCN(c2ccc(-n3c(=O)n(C[C@H]4CC[C@H](NC(=O)c5cc(Cl)cnc5C(F)F)CC4)c4ccccc43)nc2)C1=O [Example 735, 5-chloro-2-(difluoromethyl)-N-((1r,4r)-4-((3-(5-(3-methyl-2-oxoimidazolidin-1-yl)pyridin-2-yl)-2-oxo-2,3-dihydro-1H-benzo[d]imidazol-1-yl)methyl)cyclohexyl) nicotinamide]
Cc1ncc(Cl)cc1C(=O)N[C@H]1CC[C@H](Cn2c(=O)n(-c3cnc4c(cnn4CCO)c3)c3ccccc32)CC1 [Example 253, 5-chloro-N-((1r,4r)-4-((3-(1-(2-hydroxyethyl)-1H-pyrazolo[3,4-b]pyridin-5-yl)-2-oxo-2,3-dihydro-1H-benzo[d]imidazol-1-yl)methyl)cyclohexyl)-2-methylnicotinamide]
Cc1ncc(Cl)cc1C(=O)N[C@H]1CC[C@H](Cn2c(=O)n(-c3ccc(-c4cnco4)cn3)c3ccccc32)CC1 [Example 489, 5-chloro-2-methyl-N-((1r,4r)-4-((3-(5-(oxazol-5-yl)pyridin-2-yl)-2-oxo-2,3-dihydro-1H-benzo[d]imidazol-1-yl)methyl)cyclohexyl)nicotinamide]
